Common to all, as to type: cell-based
Assay [1] has as its target T1, DAGLβ (diacylglycerol lipase-β) (Mus musculus, UniProt Q91WC9).
T1 sequence (Q91WC9 1-669): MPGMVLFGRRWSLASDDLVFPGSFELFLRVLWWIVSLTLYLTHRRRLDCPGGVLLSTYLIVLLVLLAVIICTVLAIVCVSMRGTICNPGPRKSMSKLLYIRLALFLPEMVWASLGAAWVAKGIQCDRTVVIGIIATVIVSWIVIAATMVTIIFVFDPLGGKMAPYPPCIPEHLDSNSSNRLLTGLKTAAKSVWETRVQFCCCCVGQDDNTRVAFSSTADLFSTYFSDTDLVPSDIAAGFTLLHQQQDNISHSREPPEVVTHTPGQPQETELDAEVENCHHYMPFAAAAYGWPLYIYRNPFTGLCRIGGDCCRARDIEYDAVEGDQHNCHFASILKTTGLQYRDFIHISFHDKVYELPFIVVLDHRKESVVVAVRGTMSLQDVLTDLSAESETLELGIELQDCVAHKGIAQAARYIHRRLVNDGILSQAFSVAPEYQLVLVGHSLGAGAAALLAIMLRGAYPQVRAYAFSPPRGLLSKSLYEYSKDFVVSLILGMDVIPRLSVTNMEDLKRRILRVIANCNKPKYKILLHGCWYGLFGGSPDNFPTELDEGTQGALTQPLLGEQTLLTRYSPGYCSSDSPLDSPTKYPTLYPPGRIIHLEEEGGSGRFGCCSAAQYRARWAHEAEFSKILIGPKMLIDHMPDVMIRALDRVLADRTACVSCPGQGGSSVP
The assay is described as follows: competitive ABPP-SILAC in Neuro2A. The following applies: N2a, read-out: % inhibition at 20 μM.

For assay [2], the target named is T1, DAGLβ (diacylglycerol lipase-β). As to the kind of experiment: gel-based competitive ABPP, DAGLβ-HEK293T membrane lysate, probe […]. The following applies: read-out: DAGLβ % inhibition (100 nM).
Assay [3] shares this target. As to the kind of experiment: gel-based competitive ABPP, DAGLβ-HEK293T lysate, probe […]. The conditions noted are these: read-out: DAGLβ % inhibition (100 nM).

Structures are written as SMILES.

The results in this text go back to publication PMC3984011 (Journal of medicinal chemistry, 2013).

Regarding `Cc1cc(C)n2c1C=C1C=CC(CCC(=O)NCCCCCN(CCc3ccccc3)C(=O)n3cc(-c4ccc(OC(F)(F)F)cc4)nn3)=[N+]1[B-]2(F)F` [compound 38, HT-01], in assay [1], the inhibition at 20 µM was more than 80%.
Regarding `O=C(N1CCCCC1Cc1ccccc1)n1cc(-c2ccc(-c3ccccc3)cc2)nn1` (stereo not drawn) [compound 11, KT109], in assay [2], the inhibition at 0.1 µM was determined as 60.8%.
With `COc1ccccc1-c1ccc(-c2cn(C(=O)N3CCCCC3Cc3ccccc3)nn2)cc1` (racemic) [compound 27, KT172], the inhibition at 0.1 µM in assay [3] was 55.3%.
